Strand notation (5' to 3'): a small letter for the sugar, then the base; units joined by * are phosphorothioate-linked, units joined directly phosphodiester-linked; [ ] holds rarer units or linkages, { } end groups; capitals alone tell only the bases. e = 2'-O-(2-methoxyethyl) (MOE); [5mC] = 5-methylcytosine; d = 2'-deoxy (DNA)
Tests used:
[1] = test system: human PKK mRNA; assay: Antisense inhibition of human PKK mRNA in HepaRG cells, 3,000 nM (Example 1); format: cell-based; conditions: relative to untreated control cells
In short: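 HepaRG cells, 20,000 per well, were electroporated with 3,000 nM 5-10-5 MOE gapmer (phosphorothioate, 5-methylcytosine). After about 24 h, PKK mRNA was measured by qRT-PCR with primer probe set RTS3454 and normalised to RIBOGREEN total RNA. Values are percent inhibition versus untreated cells.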

[2] = test system: human PKK mRNA; assay: Dose-dependent antisense inhibition of human PKK in HepaRG cells, 0.12-10.00 uM (Example 4); format: cell-based; conditions: electroporation, ~16 h
Procedure: Cells were plated at a density of 20,000 cells per well and transfected using electroporation with 0.12 μM, 0.37 μM, 1.11 μM, 3.33 μM, and 10.00 μM concentrations of antisense oligonucleotide. After a treatment period of approximately 16 hours, RNA was isolated from the cells and PKK mRNA levels were measured by quantitative real-time PCR. Human PKK primer probe set RTS3454 was used to measure mRNA levels. PKK mRNA levels were adjusted according to total RNA content, as measured by RIBOGREEN®. The antisense oligonucleotides were tested in a series of experiments that had similar culture conditions. Results are presented as percent inhibition of PKK, relative to untreated control cells.
The half maximal inhibitory concentration (IC50) of each oligonucleotide is also presented.

[3] = test system: human PKK mRNA; assay: Antisense inhibition of human PKK mRNA in HepaRG cells, 5,000 nM (Example 2); format: cell-based; conditions: HepaRG cells, 20,000 cells per well, electroporation with 5,000 nM antisense oligonucleotide, approx. 24 hours, PKK mRNA by RT-PCR (RTS3454), relative to untreated control cells
In short: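 HepaRG cells, 20,000 per well, were electroporated with 5,000 nM MOE gapmer (phosphorothioate, 5-methylcytosine) and incubated about 24 hours. PKK mRNA was quantified by qRT-PCR with primer probe set RTS3454, normalized to RIBOGREEN total RNA, and expressed as percent inhibition versus untreated controls.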

[4] = test system: human PKK mRNA; assay: Human PKK mRNA in liver of human KLKB1 transgenic mice (Example 7); format: in vivo; conditions: twice a week for 3 weeks
Procedure: (§1) Transgenic mice containing a 37,390 base pair fragment of the human KLKB1 gene sequence (chromosome 4: position 187148672-187179625, accession no: NC_000004.11) were treated with ISIS antisense oligonucleotides selected from studies described above, which were evaluated for efficacy in this model.
(§2) Groups of transgenic mice were injected subcutaneously twice a week for 3 weeks with 2.5 mg/kg/week, 5.0 mg/kg/week, 10 mg/kg/week or 20 mg/kg/week of ISIS 546232, ISIS 546251, ISIS 546254, ISIS 546343, ISIS 546828, ISIS 547455, ISIS 547457, ISIS 547927, and ISIS 548048. One group of transgenic mice was injected subcutaneously twice a week for 3 weeks with PBS. Mice were euthanized 48 hours after the last dose, and organs and plasma were harvested for further analysis.
To evaluate the effect of ISIS oligonucleotides on target reduction, RNA was extracted from liver tissue for real-time PCR analysis of human PKK. Results are presented as percent inhibition of PKK mRNA, relative to PBS control.

[5] = test system: PKK protein; assay: Plasma PKK protein levels in human KLKB1 transgenic mice (Example 7); format: in vivo; conditions: plasma, twice a week for 3 weeks
Procedure: as §1, §2
Plasma PKK protein levels were evaluated in all groups. Results are presented as percent inhibition of PKK protein, relative to PBS control.

[6] = test system: PKK mRNA; assay: PKK mRNA in cynomolgus monkey liver (Example 8); format: in vivo; conditions: 40 mg/kg s.c., loading then weekly to week 13; day 87 or 88, 48 h after final dose
Procedure: Cynomolgus monkeys were treated with ISIS antisense oligonucleotides selected from studies described above. Antisense oligonucleotide efficacy and tolerability were evaluated. The human antisense oligonucleotides tested are cross-reactive with the rhesus genomic sequence (GENBANK Accession No. NW_001118167.1 truncated from nucleotides 2358000 to 2391000 and designated herein as SEQ ID NO: 18).
On day 87 or 88, 48 hours after the final dose, RNA was extracted from liver tissue for real-time PCR analysis of PKK using primer probe set RTS3455 (forward sequence […], designated herein as SEQ ID NO: 23; reverse sequence […], designated herein as SEQ ID NO: 24; probe sequence […], designated herein as SEQ ID NO: 25). The results were normalized to the housekeeping gene, Cyclophilin. Results are presented as percent inhibition of PKK mRNA, relative to PBS control.

[7] = Table 1, PKK mRNA, HepaRG cells, 3,000 nM, electroporation, ~24 h
[8] = Table 4, HepaRG cells, electroporation with 3,000 nM antisense oligonucleotide, approx. 24 hours, PKK mRNA by RT-PCR (RTS3454)
[9] = Table 3, HepaRG cells, electroporation with 3,000 nM antisense oligonucleotide, approx. 24 hours, PKK mRNA by RT-PCR (RTS3454)

Substance	% inhibition [1, 7] [%]	percent inhibition of PKK at 0.12 μM ([2]; Table 32, 0.12 μM) [%]	percent inhibition of PKK at 0.37 μM ([2]; Table 32, 0.37 μM) [%]	percent inhibition of PKK at 1.11 μM ([2]; Table 32, 1.11 μM) [%]	percent inhibition of PKK at 3.33 μM ([2]; Table 32, 3.33 μM) [%]	percent inhibition of PKK at 10.00 μM ([2]; Table 32, 10.00 μM) [%]	IC50 ([2]; Table 32, PKK mRNA) [µM]	% inhibition [1, 8] [%]	percent inhibition of PKK at 0.12 μM ([2]; Table 33, 0.12 μM) [%]	percent inhibition of PKK at 0.37 μM ([2]; Table 33, 0.37 μM) [%]	percent inhibition of PKK at 1.11 μM ([2]; Table 33, 1.11 μM) [%]	percent inhibition of PKK at 3.33 μM ([2]; Table 33, 3.33 μM) [%]	percent inhibition of PKK at 10.00 μM ([2]; Table 33, 10.00 μM) [%]	IC50 ([2]; Table 33, PKK mRNA) [µM]	further results
531004 (eA*eG*eA*eG*eT*dA*dA*d[5mC]*d[5mC]*dA*dG*dA*dG*d[5mC]*dT*e[5mC]*e[5mC]*e[5mC]*eT*eT; antisense) [compound 531004]	76	0	14	25	71	84	2.1								
531236 (eA*eT*e[5mC]*eA*e[5mC]*dT*dG*dT*dA*d[5mC]*dT*dA*dG*dT*dT*eT*e[5mC]*e[5mC]*eT*eA; antisense) [compound 531236]								87	4	28	59	85	93	0.8	
531002 (eG*eA*eG*e[5mC]*eT*d[5mC]*d[5mC]*d[5mC]*dT*dT*dG*dT*dG*dT*d[5mC]*e[5mC]*e[5mC]*eA*eT*eA; antisense) [compound 531002]	85	6	28	58	82	86	0.9								
547455 (antisense eA*eT*eA*eT*e[5mC]*dA*dT*dG*dA*dT*dT*d[5mC]*d[5mC]*d[5mC]*dT*eT*e[5mC]*eT*eG*eA) [compound 547455]															% inhibition ([3]; Table 9 experiment): 88%; % inhibition ([3]; Table 10 experiment): 66%; % inhibition of PKK mRNA in the transgenic mice liver relative to the PBS control ([4]; 2.5 mg/kg/week sc): 0%; % inhibition of PKK mRNA in the transgenic mice liver relative to the PBS control ([4]; 5 mg/kg/week sc): 69%; % inhibition of PKK mRNA in the transgenic mice liver relative to the PBS control ([4]; 10 mg/kg/week sc): 45%; % inhibition of PKK mRNA in the transgenic mice liver relative to the PBS control ([4]; 20 mg/kg/week sc): 62%; % inhibition of PKK protein levels in the transgenic mice relative to the PBS control ([5]; 2.5 mg/kg/week sc): 0%; % inhibition of PKK protein levels in the transgenic mice relative to the PBS control ([5]; 5 mg/kg/week sc): 0%; % inhibition of PKK protein levels in the transgenic mice relative to the PBS control ([5]; 10 mg/kg/week sc): 32%; % inhibition of PKK protein levels in the transgenic mice relative to the PBS control ([5]; 20 mg/kg/week sc): 78%; % inhibition of PKK mRNA in the cynomolgus monkey liver relative to the PBS control [6]: 90%
531123 (antisense eT*e[5mC]*e[5mC]*e[5mC]*eA*dG*d[5mC]*dT*d[5mC]*d[5mC]*dA*dG*dT*d[5mC]*dA*e[5mC]*e[5mC]*eA*e[5mC]*e[5mC]) [compound 531123]									14	43	51	71	64	0.9	% inhibition [1, 9]: 74%
531110 (antisense eG*e[5mC]*e[5mC]*eT*eG*dT*dT*dT*dG*dG*dT*dG*dG*dT*d[5mC]*eT*e[5mC]*eT*eT*e[5mC]) [compound 531110]									14	29	49	76	85	1.1	% inhibition [1, 9]: 86%
531232 (e[5mC]*eT*eG*eT*eA*d[5mC]*dT*dA*dG*dT*dT*dT*d[5mC]*d[5mC]*dT*eA*eT*eA*eA*e[5mC]; antisense) [compound 531232]								85	15	26	40	62	76	1.7	
531069 (e[5mC]*e[5mC]*eA*eG*eT*d[5mC]*d[5mC]*dA*dT*dG*dT*dA*d[5mC]*dT*d[5mC]*eA*eG*e[5mC]*eG*eA; antisense) [compound 531069]									19	39	48	76	83	0.9	% inhibition ([1]; Table 2, PKK mRNA, HepaRG cells, 3,000 nM, electroporation, ~24 h): 56%
531235 (eT*e[5mC]*eA*e[5mC]*eT*dG*dT*dA*d[5mC]*dT*dA*dG*dT*dT*dT*e[5mC]*e[5mC]*eT*eA*eT; antisense) [compound 531235]								86	27	55	62	84	95	0.4	
531005 (e[5mC]*eT*e[5mC]*eA*eA*dA*dG*dA*dG*dT*dA*dA*d[5mC]*d[5mC]*dA*eG*eA*eG*e[5mC]*eT; antisense) [compound 531005]	76	14	28	61	73	77	0.9								
531172 (antisense eT*eT*e[5mC]*eA*eA*dG*d[5mC]*d[5mC]*dT*dG*dG*dG*d[5mC]*dA*dG*e[5mC]*eA*e[5mC]*eA*eG) [compound 531172]								71	0	16	37	60	60	2.1	
530959 (antisense eT*e[5mC]*eA*eA*e[5mC]*dA*d[5mC]*dT*dG*d[5mC]*dT*dA*dA*d[5mC]*d[5mC]*eT*eT*eA*eG*eA) [compound 530959]	60	12	27	53	80	94	0.9								
530988 (eT*e[5mC]*e[5mC]*eA*eA*dA*dG*dT*d[5mC]*dA*dA*d[5mC]*dT*d[5mC]*d[5mC]*e[5mC]*eG*eG*eG*eT; antisense) [compound 530988]	76	0	25	54	86	78	0.9								
